What was measured:
[1] = tested on: Leishmania donovani axenic amastigote parasites; test: Leishmania donovani axenic amastigote proliferation assay (Cell TiterGlo luminescence, 2 day incubation); type: cell-based; conditions: Leishmania donovani, L. donovani axenic amastigotes; read-out: L. donovani amastigotes EC50
[2] = tested on: L. donovani HU3 strain in mouse peritoneal macrophages; test: Assay for proliferation of Leishmania parasites in infected mouse peritoneal macrophages (SybrGreen staining, high-content imaging, 5 days); type: cell-based, Leishmania donovani; conditions: Leishmania donovani, Peritoneal macrophage, L. donovani in mouse peritoneal macrophages; read-out: L. donovani Macrophage EC50
[3] = tested on: Trypanosoma brucei Lister 427 strain, bloodstream form; test: Assay for proliferation of kinetoplastid parasite Trypanosoma brucei (Cell Titer Glo, 48 hours); type: cell-based; conditions: Trypanosoma brucei, T. brucei Lister 427 bloodstream form; read-out: T. brucei EC50
Summary of the method: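 Bloodstream-form T. brucei Lister 427 in HMI-9 medium was exposed to compound (DMSO vehicle) for 48 hours at 37° C, 5% CO2. Parasite growth was read as ATP by CellTiter-Glo luminescence, with EC50 calculated from percent inhibition.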

[4] = tested on: Trypanosoma cruzi amastigotes (Tulahuen strain expressing Lac-Z) cultured in 3T3 fibroblast cells; test: microbe, parasite or virus in culture; type: cell-based; conditions: Trypanosoma cruzi, TULAHUEN, Fibroblast, T. cruzi amastigotes in 3T3 fibroblast cells; read-out: T cruzi EC50
[5] = patients injected with Melarsoprol (Arsobal); cited from earlier work

Row | SMILES | EC50 [1] [µM] | EC50 [2] [µM] | EC50 [3] [µM] | EC50 [4] [µM] | patients who developed reactive encephalopathy (convulsions, progressive coma, or psychotic reactions) [5] | reactive encephalopathy cases that result in death [5]
1 | Cc1nc(C)c(C(=O)N(c2ccc(F)c(-c3cn4cc(OC(C)C)cnc4n3)c2)C(C)C)o1 [Compound 612] | 9.4 | 1.06 | 12.4 | 3.81 |  | 
2 | Nc1nc(N)nc(Nc2ccc([As]3SCC(CO)S3)cc2)n1 (stereo not drawn) [Melarsoprol] |  |  |  |  | 3-10 % of patients | 10-70 % of such cases

From patent US20160045505A1, “COMPOUNDS AND COMPOSITIONS FOR THE TREATMENT OF PARASITIC DISEASES” (NOVARTIS AG, priority 2013, published 2016)
